Converted amounts (≈) assume the structure as drawn. Read-outs that look alike come from different tables or passages of the source.
Legend:
[1] = test system: Staphylococcus aureus SA101 (ATCC 29213, MSSA); test: MIC assay, SA101; type: cell-based
[2] = test system: Staphylococcus aureus SA191 (HA-MRSA, tetracycline-resistant); test: MIC assay, SA191; type: cell-based; details: MRSA, read-out: MIC SA 191
[3] = test system: Staphylococcus aureus SA158 (tetracycline-resistant tet(K)); test: MIC assay, SA158; type: cell-based
[4] = test system: Staphylococcus epidermidis SE164 (ATCC 12228); test: MIC assay, SE164; type: cell-based; details: ATCC12228, read-out: MIC SE 164 12228
[5] = test system: Streptococcus pneumoniae SP160 (tet(M)); test: MIC assay, SP160; type: cell-based
[6] = test system: Streptococcus pyogenes SP312 (2009 clinical isolate, tet(M)); test: MIC assay, SP312; type: cell-based
[7] = test system: Escherichia coli EC107 (ATCC 25922); test: MIC assay, EC107; type: cell-based
[8] = test system: Proteus mirabilis PM112 (ATCC 35659); test: MIC assay, PM112; type: cell-based; details: ATCC35659, read-out: MIC PM 112 35659
[9] = test system: Pseudomonas aeruginosa PA556 (multiple-Mex efflux pump knockout strain); test: microbe, parasite or virus in culture; type: cell-based
[10] = test system: Pseudomonas aeruginosa PA1145 (strain used in murine pneumonia model); test: MIC assay, PA1145; type: cell-based
[11] = test system: Stenotrophomonas maltophilia SM256 (cystic fibrosis isolate, MDR); test: MIC assay, SM256; type: cell-based
[12] = test system: Klebsiella pneumoniae KP153 (tet(A), MDR, ESBL+); details: K. pneumoniae tet(A), MDR, ESBL+
[13] = test system: Klebsiella pneumoniae KP109 (ATCC 13883); test: MIC assay, KP109; details: K. pneumoniae ATCC 13883; Table 4
PA 689 = test: MIC assay, PA689; details: Pseudomonas aeruginosa, read-out: MIC PA 689
Experimental: Minimum Inhibitory Concentration (MIC) Assay
MICs were determined according to the Clinical and Laboratory Standards Institute (CLSI) guidances (e.g., CLSI. Performance standards for antimicrobial susceptibility testing; nineteenth information supplement. CLSI document M100-S19, CLSI, 940 West Valley Road, Suite 1400, Wayne, Pa. 19087-1898, USA, 2009). Briefly, frozen bacterial strains were thawed and subcultured onto Mueller Hinton Broth (MHB) or other appropriate media (Streptococcus requires blood and Haemophilus requires hemin and NAD). Following incubation overnight, the strains were subcultured onto Mueller Hinton Agar and again incubated overnight. […] Isolated colonies were selected to prepare a starting inoculum equivalent to a 0.5 McFarland standard. […] Test compounds were prepared by dilution in sterile water to a final concentration of 5.128 mg/mL. Antibiotics (stored frozen, thawed and used within 3 hours of thawing) and compounds were further diluted to the desired working concentrations.
The assays were run as follows. Fifty μL of MHB was added to wells 2-12 of a 96-well plate. One hundred μL of appropriately diluted antibiotics was added to well 1. Fifty μL of antibiotics was removed from well 1 and added to well 2 and the contents of well 2 mixed by pipetting up and down five times. Fifty μL of the mixture in well 2 was removed and added to well 3 and mixed as above. Serial dilutions were continued in the same manner through well 12. Fifty μL was removed from well 12 so that all contained 50 μL. Fifty μL of the working inoculum was then added to all test wells. A growth control well was prepared by adding 50 μL of working inoculum and 50 μL of MHB to an empty well. The plates were then incubated at 37° C. overnight, removed from the incubator and each well was read on a plate reading mirror. The lowest concentration (MIC) of test compound that inhibited the growth of the bacteria was recorded.

Compound: CN(C)c1cc(NC(=O)CNC(C)(C)C)c(O)c2c1C[C@H]1C[C@H]3[C@H](N(C)C)C(O)=C(C(N)=O)C(=O)[C@@]3(O)C(O)=C1C2=O [Tigecycline, tigecycline]
- MIC ([1]; read-out: MIC SA 101 292 13, S. aureus ATCC 29213, MSSA, Table 6): 0.063 µg/mL (≈ 0.108 µM)
- MIC ([1]; read-out: MIC SA 101 29213, S. aureus ATCC 29213, MSSA, Table 4): 0.063 µg/mL (≈ 0.108 µM)
- MIC ([1]; read-out: MIC SA 101 29213, S. aureus ATCC 29213, MSSA, Table 5): 0.0625 µg/mL (≈ 0.107 µM)
- MIC ([1]; read-out: MIC SA 101 29213, S. aureus ATCC 29213, MSSA, Table 7): 0.06 µg/mL (≈ 0.102 µM)
- MIC ([1]; read-out: MIC SA 101 29213, control compounds): 0.06 µg/mL (≈ 0.102 µM)
- MIC ([1]; read-out: MIC SA 101 29213, control compounds, numeric): 0.06 µg/mL (≈ 0.102 µM)
- MIC [2]: 0.5 µg/mL (≈ 0.854 µM)
- MIC ([3]; read-out: MIC SA 158 tetK, S. aureus tet(K), Table 4): 0.063 µg/mL (≈ 0.108 µM)
- MIC ([3]; read-out: MIC SA 158 tetK, S. aureus tet(K), Table 5): 0.06 µg/mL (≈ 0.102 µM)
- MIC ([3]; read-out: MIC SA 158 tetK, S. aureus tet(K), Table 6): 0.063 µg/mL (≈ 0.108 µM)
- MIC ([3]; read-out: MIC SA 158 tetK, S. aureus tet(K), Table 7): 0.06 µg/mL (≈ 0.102 µM)
- MIC ([3]; read-out: MIC SA 158 tetK, control compounds): 0.06 µg/mL (≈ 0.102 µM)
- MIC ([3]; read-out: MIC SA 158 tetK, control compounds, numeric): 0.06 µg/mL (≈ 0.102 µM)
- MIC [4]: 0.125 µg/mL (≈ 0.213 µM)
- MIC ([5]; read-out: MIC SP 160 tet M, S. pneumoniae tet(M), Table 6): 0.015 µg/mL (≈ 0.0256 µM)
- MIC ([5]; read-out: MIC SP 160 tetM, S. pneumoniae tet(M), Table 4): 0.016 µg/mL (≈ 0.0273 µM)
- MIC ([5]; read-out: MIC SP 160 tetM, S. pneumoniae tet(M), Table 5): 0.02 µg/mL (≈ 0.0341 µM)
- MIC ([5]; read-out: MIC SP 160 tetM, S. pneumoniae tet(M), Table 7): 0.02 µg/mL (≈ 0.0341 µM)
- MIC ([5]; read-out: MIC SP 160 tetM, control compounds): 0.02 µg/mL (≈ 0.0341 µM)
- MIC ([5]; read-out: MIC SP 160 tetM, control compounds, numeric): 0.02 µg/mL (≈ 0.0341 µM)
- MIC ([6]; read-out: MIC SP 312): 0.02 µg/mL (≈ 0.0341 µM)
- MIC ([6]; read-out: MIC SP 312 tet M): 0.015 µg/mL (≈ 0.0256 µM)
- MIC ([7]; ATCC25922, read-out: MIC EC 07 25922, E. coli ATCC 25922, Table 7): 0.03 µg/mL (≈ 0.0512 µM)
- MIC ([7]; ATCC25922, read-out: MIC EC 107 259 22, E. coli ATCC 25922, Table 6): 0.03 µg/mL (≈ 0.0512 µM)
- MIC ([7]; ATCC25922, read-out: MIC EC 107 25922, E. coli ATCC 25922, Table 4): 0.031 µg/mL (≈ 0.0529 µM)
- MIC ([7]; ATCC25922, read-out: MIC EC 107 25922, E. coli ATCC 25922, Table 5): 0.03 µg/mL (≈ 0.0512 µM)
- MIC ([7]; ATCC25922, read-out: MIC EC 107 25922, control compounds): 0.03 µg/mL (≈ 0.0512 µM)
- MIC ([7]; ATCC25922, read-out: MIC EC 107 25922, control compounds, numeric): 0.03 µg/mL (≈ 0.0512 µM)
- MIC [8]: 1 µg/mL (≈ 1.71 µM)
- MIC [9]: 0.25 µg/mL (≈ 0.427 µM)
- MIC ([9]; read-out: MIC PA 556): 0.25 µg/mL (≈ 0.427 µM)
- MIC [10]: 33 µg/mL (≈ 56.3 µM)
- MIC ([10]; read-out: MIC PA 1145): 16 µg/mL (≈ 27.3 µM)
- MIC ([10]; read-out: MIC PA 1145 Vivi- source): 16 µg/mL (≈ 27.3 µM)
- MIC [11]: 1 µg/mL (≈ 1.71 µM)
- MIC ([11]; read-out: MIC SM 256): 1 µg/mL (≈ 1.71 µM)
- MIC KP 153 tetA ([12]; Table 4): 1 µg/mL (≈ 1.71 µM)
- MIC KP 153 tetA ([12]; Table 5): 1 µg/mL (≈ 1.71 µM)
- MIC KP 109 13883 [13]: 0.125 µg/mL (≈ 0.213 µM)
- MIC (PA 689): 1 µg/mL (≈ 1.71 µM)
